{
  "source": "ChEMBL document CHEMBL1201862",
  "about": "“PubChem BioAssay data set” (2004)",
  "key": {"[1]": {"assay": "Luminescence Cell-Based Dose Retest to Confirm Inhibitors of Cancer Stem Cells. [Related pubchem assays (depositor defined):AID2717, AID2721]", "format": "functional", "conditions": "Homo sapiens"}, "[2]": {"test_system": "Jurkat", "assay": "SAR Analysis of small molecule inhibitors of T-cell specific antigen receptor-induced NF-kB activation in a Jurkat cell line using a luminescence assay - Set 2. [Related pubchem assays (depositor defined):AID435003, AID435012, AID465]", "format": "functional, cell-based", "conditions": "Homo sapiens"}, "[3]": {"test_system": "HEK293", "assay": "cytotoxicity in HEK293T NF-kB-Luc cells, SAR follow-up, cytotoxicity control for NF-kB activator project, cell-based, resazurin fluorescence (AID 493251)", "format": "functional", "conditions": "Homo sapiens"}, "[4]": {"test_system": "HEK293", "assay": "HEK cell cytotoxicity by LDH release, dose response, cytotoxicity control for IDE activator project, fluorescence, HEK cells (AID 588440);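 further: cytotoxicity by LDH release measuring loss of membrane integrity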", "format": "functional, cell-based", "conditions": "Homo sapiens"}, "[5]": {"molecular_target": "Tyrosyl-DNA phosphodiesterase 2 (Homo sapiens, UniProt O95551)", "sequence (O95551 whole entry)": "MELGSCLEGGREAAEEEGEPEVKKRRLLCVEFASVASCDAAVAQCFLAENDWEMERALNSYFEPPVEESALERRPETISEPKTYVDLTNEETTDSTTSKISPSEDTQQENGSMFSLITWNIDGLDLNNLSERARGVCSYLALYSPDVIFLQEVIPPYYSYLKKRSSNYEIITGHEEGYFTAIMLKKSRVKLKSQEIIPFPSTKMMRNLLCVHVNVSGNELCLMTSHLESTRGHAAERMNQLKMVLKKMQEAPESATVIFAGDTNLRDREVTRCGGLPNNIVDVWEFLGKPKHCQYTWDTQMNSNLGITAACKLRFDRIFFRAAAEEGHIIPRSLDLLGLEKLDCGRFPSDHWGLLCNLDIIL", "assay": "human TDP2 enzyme inhibitors, dose response, biochemical, epi absorbance, IC50 (AID 743297)"}, "[6]": {"molecular_target": "SWI/SNF-related matrix-associated actin-dependent regulator of chromatin subfamily A member 2 (Homo sapiens, UniProt P51531)", "sequence (P51531 whole entry)": "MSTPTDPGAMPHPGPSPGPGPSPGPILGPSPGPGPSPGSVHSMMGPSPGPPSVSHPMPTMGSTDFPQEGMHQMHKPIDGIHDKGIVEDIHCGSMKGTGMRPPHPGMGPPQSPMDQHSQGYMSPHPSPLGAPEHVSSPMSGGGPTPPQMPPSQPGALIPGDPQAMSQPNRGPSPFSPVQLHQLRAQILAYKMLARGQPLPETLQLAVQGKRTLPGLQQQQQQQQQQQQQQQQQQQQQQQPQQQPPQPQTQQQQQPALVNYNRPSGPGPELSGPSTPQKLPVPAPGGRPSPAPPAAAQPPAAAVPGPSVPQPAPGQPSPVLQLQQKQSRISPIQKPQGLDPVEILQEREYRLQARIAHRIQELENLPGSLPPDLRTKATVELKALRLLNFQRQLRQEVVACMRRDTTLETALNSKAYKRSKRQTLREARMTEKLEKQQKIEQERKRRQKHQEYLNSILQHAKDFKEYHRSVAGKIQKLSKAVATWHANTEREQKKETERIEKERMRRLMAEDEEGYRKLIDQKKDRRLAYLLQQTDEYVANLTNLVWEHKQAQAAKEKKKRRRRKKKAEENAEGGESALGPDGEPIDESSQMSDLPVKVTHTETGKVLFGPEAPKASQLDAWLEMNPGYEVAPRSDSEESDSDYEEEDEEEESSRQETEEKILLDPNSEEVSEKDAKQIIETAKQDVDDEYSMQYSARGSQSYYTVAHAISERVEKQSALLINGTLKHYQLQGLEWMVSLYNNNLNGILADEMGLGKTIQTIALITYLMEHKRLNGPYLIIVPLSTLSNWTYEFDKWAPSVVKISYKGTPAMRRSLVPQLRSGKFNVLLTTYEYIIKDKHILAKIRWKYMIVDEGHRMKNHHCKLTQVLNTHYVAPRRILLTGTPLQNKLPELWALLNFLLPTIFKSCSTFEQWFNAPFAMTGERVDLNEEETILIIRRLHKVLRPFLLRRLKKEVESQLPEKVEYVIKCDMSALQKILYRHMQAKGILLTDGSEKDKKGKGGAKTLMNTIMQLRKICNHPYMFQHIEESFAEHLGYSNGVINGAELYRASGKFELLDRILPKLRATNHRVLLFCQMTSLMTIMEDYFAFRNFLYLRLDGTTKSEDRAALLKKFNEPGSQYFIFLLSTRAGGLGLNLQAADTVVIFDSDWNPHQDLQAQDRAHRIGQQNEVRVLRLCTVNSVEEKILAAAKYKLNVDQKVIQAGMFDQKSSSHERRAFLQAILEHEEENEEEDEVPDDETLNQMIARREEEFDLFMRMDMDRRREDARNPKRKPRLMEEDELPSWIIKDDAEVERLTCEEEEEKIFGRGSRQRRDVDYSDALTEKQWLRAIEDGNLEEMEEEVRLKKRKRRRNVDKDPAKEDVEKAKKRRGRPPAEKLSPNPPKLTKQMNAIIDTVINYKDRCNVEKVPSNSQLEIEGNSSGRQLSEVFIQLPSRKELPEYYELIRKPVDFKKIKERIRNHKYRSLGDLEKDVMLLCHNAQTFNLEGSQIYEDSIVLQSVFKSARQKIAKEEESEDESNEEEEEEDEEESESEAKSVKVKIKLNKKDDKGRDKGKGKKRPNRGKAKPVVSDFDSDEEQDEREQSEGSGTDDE", "assay": "Luminescence-based cell-based high throughput dose response assay to identify activators of the function of SWI/SNF related, matrix associated, actin dependent regulator of chromatin, subfamily a, member 2 (SMARCA2, BRM).", "format": "functional"}, "[7]": {"test_system": "HeLa", "assay": "HeLa cell cytotoxicity, dose response, cytotoxicity control, 24 h, cherry-picked samples (AID 504726);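 further: potency for cytotoxicity as loss of luminescence signal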", "format": "functional, cell-based", "conditions": "Homo sapiens"}, "[8]": {"molecular_target": "T1, Insulin-degrading enzyme (Homo sapiens, UniProt P14735)", "T1 sequence (P14735 whole entry)": "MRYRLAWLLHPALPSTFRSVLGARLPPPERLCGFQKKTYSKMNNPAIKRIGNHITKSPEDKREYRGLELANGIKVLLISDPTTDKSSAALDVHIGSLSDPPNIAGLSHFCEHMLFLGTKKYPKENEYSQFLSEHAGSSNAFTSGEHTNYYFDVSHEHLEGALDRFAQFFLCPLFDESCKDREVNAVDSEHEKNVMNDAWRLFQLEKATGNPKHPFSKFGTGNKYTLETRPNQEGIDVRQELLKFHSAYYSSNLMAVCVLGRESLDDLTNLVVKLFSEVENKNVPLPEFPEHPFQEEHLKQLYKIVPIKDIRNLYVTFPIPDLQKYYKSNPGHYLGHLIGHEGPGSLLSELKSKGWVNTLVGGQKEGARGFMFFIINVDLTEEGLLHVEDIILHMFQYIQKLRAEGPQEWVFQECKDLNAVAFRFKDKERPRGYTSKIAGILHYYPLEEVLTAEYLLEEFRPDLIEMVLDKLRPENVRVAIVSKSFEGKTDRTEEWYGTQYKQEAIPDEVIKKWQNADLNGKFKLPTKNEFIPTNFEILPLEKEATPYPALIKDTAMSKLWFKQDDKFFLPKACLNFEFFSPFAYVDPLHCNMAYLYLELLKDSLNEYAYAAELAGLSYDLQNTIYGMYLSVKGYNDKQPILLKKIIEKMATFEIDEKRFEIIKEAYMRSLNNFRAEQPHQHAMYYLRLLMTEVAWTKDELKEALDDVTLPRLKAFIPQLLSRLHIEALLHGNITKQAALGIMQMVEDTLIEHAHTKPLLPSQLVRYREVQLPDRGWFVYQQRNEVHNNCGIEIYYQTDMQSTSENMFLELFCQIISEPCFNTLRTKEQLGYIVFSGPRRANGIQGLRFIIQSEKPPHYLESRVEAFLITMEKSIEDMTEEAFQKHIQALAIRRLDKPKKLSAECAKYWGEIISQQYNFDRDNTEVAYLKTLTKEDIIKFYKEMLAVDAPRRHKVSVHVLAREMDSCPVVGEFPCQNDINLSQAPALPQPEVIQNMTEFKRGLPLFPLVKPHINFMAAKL", "assay": "activators of recombinant IDE enzyme, dose response, counter-screen for IDE activator project, biochemical, fluorescence polarization (AID 588681)"}, "[9]": {"molecular_target": "T2, Caspase-6 (Homo sapiens, UniProt P55212)", "T2 sequence (P55212 whole entry)": "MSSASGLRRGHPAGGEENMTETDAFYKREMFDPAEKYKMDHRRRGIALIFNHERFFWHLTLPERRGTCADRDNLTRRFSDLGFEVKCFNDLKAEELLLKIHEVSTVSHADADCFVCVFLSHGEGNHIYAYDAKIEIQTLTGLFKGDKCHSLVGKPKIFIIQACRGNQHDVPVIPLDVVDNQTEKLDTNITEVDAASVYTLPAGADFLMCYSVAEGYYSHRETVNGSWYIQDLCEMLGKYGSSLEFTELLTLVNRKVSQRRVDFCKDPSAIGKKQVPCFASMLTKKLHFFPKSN", "assay": "human caspase-6 inhibitors, dose response, biochemical, VEID-R110 fluorescence, cherry-pick (AID 720632)"}, "[10]": {"molecular_target": "T3, Hexokinase HKDC1 (Homo sapiens, UniProt Q2TB90)", "T3 sequence (Q2TB90 whole entry)": "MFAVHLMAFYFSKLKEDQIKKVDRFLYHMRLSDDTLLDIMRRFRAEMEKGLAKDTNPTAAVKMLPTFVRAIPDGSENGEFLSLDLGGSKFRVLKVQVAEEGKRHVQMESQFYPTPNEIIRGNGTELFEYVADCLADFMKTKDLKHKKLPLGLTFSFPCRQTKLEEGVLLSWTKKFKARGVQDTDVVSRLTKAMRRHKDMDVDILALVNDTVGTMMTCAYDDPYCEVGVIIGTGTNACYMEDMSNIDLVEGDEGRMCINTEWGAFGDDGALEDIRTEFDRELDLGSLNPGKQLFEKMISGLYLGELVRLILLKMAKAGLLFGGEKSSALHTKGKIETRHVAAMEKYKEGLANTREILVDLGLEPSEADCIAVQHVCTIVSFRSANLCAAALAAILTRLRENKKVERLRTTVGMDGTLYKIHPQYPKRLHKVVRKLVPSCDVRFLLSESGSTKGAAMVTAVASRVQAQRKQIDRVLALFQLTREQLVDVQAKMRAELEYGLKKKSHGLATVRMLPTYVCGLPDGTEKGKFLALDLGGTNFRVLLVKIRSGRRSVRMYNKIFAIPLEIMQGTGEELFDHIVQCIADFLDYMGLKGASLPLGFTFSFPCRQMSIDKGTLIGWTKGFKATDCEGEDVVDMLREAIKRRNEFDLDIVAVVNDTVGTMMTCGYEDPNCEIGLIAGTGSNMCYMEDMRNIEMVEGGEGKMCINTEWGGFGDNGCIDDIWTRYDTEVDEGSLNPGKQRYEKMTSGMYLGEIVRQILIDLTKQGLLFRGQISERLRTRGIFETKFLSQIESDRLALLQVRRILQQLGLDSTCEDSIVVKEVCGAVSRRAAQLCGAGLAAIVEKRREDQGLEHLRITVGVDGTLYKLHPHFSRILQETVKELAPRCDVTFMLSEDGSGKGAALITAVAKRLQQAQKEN", "assay": "HKDC1 hexokinase inhibitors, dose response, biochemical, W721R variant (AID 504729)", "format": "functional"}},
  "note": "Calls of active or inactive are those of the source.",
  "data": [
    {"smiles": "CCCCC(=O)NC(c1ccco1)c1cc(Cl)c2cccnc2c1O", "note": "(stereo not given)", "values": [
      {"measurement": "AC50", "setting": "[1]", "value": "3.33 µM (active)"}
    ]},
    {"smiles": "CCCCC(=O)NC(c1ccc(Cl)cc1)c1ccc2cccnc2c1O", "note": "(stereo not given)", "values": [
      {"measurement": "IC50", "setting": "[2]", "value": "5.28 µM (active)"},
      {"measurement": "IC50", "setting": "[3]", "value": "23.3 µM (inactive)"}
    ]},
    {"smiles": "COc1ccc2noc3c2c1C(=O)c1ccccc1-3", "values": [
      {"measurement": "IC50", "setting": "[4]", "value": "> 89.2 µM (inactive)"},
      {"measurement": "IC50", "setting": "[5]", "value": "65.7 µM (inactive)"},
      {"measurement": "EC50", "setting": "[6]", "value": "> 91.2 µM (inactive)"},
      {"measurement": "AC50", "setting": "[7]", "value": "74.7 µM (active)"},
      {"measurement": "EC50", "setting": "[8]", "value": "> 54.7 µM (inactive)"}
    ]},
    {"smiles": "CCc1ccc2c(c1)C(NC(C)=O)C(=O)N2CCN1CCOCC1", "note": "(stereo not given)", "values": [
      {"measurement": "AC50", "setting": "[9]", "value": "11.9 µM (active)"},
      {"measurement": "IC50", "setting": "[10]", "value": "6.27 µM (active)"}
    ]}
  ]
}
